Measured values taken from patent US11998541B2, “Method for alleviating chronic liver disease using Rosoxacin” (National Yang Ming Chiao Tung University, priority 2022, dated 2024).
“Also recorded” adds a separate entry of the source.

Columns and labels:
male C57BL/6JNarl mice [1] = assay: CDAA diet induced NASH / liver fibrosis in mice, oral rosoxacin; type: in vivo; conditions: 50 mg/kg oral gavage once every two days, week 3 to 6 of CDAA diet
From the text: The male C57BL/6JNarl mice were randomly divided into a normal control group, a pathological control group, and an experimental group (n=6 per group). The mice in the normal control group were fed ad libitum for a total of 6 weeks with a normal chow diet (NCD) (Altromin, Cat. No. 1320). In addition, the mice in each of the pathological control group and the experimental group were fed ad libitum for a total of 6 weeks with a choline deficient L-amino acid defined diet (CDAA) (Research Diets, Cat. No. A21060401) containing 45% fat and 0.2% cholesterol, so as to induce NASH.
On the 3rd week after feeding the diet to the mice in each group as described in the preceding paragraph, the mice in the experimental group were also fed, via oral gavage, with the rosoxacin solution prepared in section A of Example 2, at a dose of 50 mg/kg per mouse. In addition, the mice in each of the normal control group and the pathological control group were fed, via oral gavage, with PBS at a volume of 150 μL. Each mouse was fed once every two days until the end of the 6th week after feeding with the diets. […]
Next, ImageJ Imaging software was used for quantitatively calculating the percentage (%) of Sirius Red-stained area. […] The data thus obtained were analyzed according to the procedures as described in section 1 of “General Procedures”.

HepG2 cells [2] = assay: Amount of accumulated lipid droplets in fatty acid-treated HepG2 cells (BODIPY, flow cytometry); type: cell-based, human; conditions: FIG. 2
Procedure: The HepG2 cells prepared in section 1 of “General Experimental Materials” were divided into 6 groups, including a normal control group, two comparative groups (i.e., comparative groups 1 and 2), a pathological control group, and two experimental groups (i.e., experimental groups 1 and 2). Each group of the HepG2 cells was incubated in a respective well of a 24-well culture plate containing 1 mL of DMEM medium at 1.2×10^5 cells/well, followed by cultivation in an incubator with culture conditions set at 37° C., 5% CO2. On the 24th and 48th hours after cultivation, the culture medium in each well was removed, and the cells of the respective group were added with the respective testing agent as shown in Table 2 below. […] After that, the supernatant was poured off, and the pellet was subjected to a fixation treatment with 4% paraformaldehyde (in PBS) for 15 minutes, followed by determining the fluorescence intensity using a flow cytometer (BD Biosciences, Cat. No. BD Accuri C6). The BODIPY was excited by an argon-ion laser (488 nm) to generate fluorescence. The fluorescence intensity was then measured at a wavelength of 504 nm, and 10,000 cells were analyzed each time. The data thus obtained were analyzed using BD Accuri C6 software, so as to obtain the mean fluorescence intensity (MFI) value in each group. […]

α-SMA = assay: Expression level of α-SMA in fatty acid-treated LX-2 cells (Western blotting); type: cell-based, human; conditions: fatty acid mixture + rosoxacin 50 μM (24th, 48th h), 900 μM (72nd h), p<0.0001, FIG. 8
Procedure: Each group of the LX-2 cells was incubated in a respective well of a 24-well culture plate containing 1 mL of DMEM medium at 1.2×10^5 cells/well, followed by cultivation in an incubator with culture conditions set at 37° C., 5% CO2. On the 24th and 48 th hours after cultivation, the culture medium in each well was removed, and the cells of the respective group were added with the respective testing agent as shown in Table 3 below. In addition, on the 72nd hour after cultivation, the cell culture of the respective group was added with the respective testing agent as shown in Table 3. On the 96th hour after cultivation, the liquid in each well was removed, and the cells were washed with PBS, followed by adding 500 μL of trypsin-EDTA to detach the cells from the bottom of the plate. Subsequently, 1 mL fresh DMEM medium was added to each well to neutralize trypsin activity, followed by centrifugation at 4° C. under a speed of 300 g for 3 minutes, so as to form a supernatant and a pellet. After that, the supernatant was poured off, and the resultant cell pellet was collected. […] The protein concentration in the total protein sample was determined using bicinchoninic acid assay kit (Thermo, Cat. No. 23227) in accordance with the manufacturer's instructions. […] Subsequently, ImageJ Imaging Software was used for semi-quantitatively calculating the corresponding protein expression level. […]

male C57BL/6JNarl mice [3] = assay: High-fat diet induced NAFLD in mice, oral rosoxacin; type: in vivo; conditions: for lipid droplets accumulated in liver (hematoxylin-eosin histology) / aspartate transaminase (AST) content in serum / alanine transaminase (ALT) content in serum: HFD; for lipid droplets accumulated in liver (hematoxylin-eosin histology): FIG. 5; for aspartate transaminase (AST) content in serum: FIG. 6; for alanine transaminase (ALT) content in serum: FIG. 7; for liver weight: FIG. 4
From the text: The male C57BL/6JNarl mice were randomly divided into a normal control group, a pathological control group, and two experimental groups (i.e., experimental groups 1 and 2) (n=5 per group). The mice in the normal control group were fed ad libitum for a total of 14 weeks with a normal chow diet (NCD) (Altromin, Cat. No. 1320). In addition, the mice in each of the pathological control group and the experimental groups 1 and 2 were fed ad libitum for a total of 14 weeks with a high-fat diet (HFD) (Research Diets, Cat. No. D12492) containing 60% fat, so as to induce NAFLD.
On the 5th week after feeding the diet to the mice in each group as described in section B of this example, the mice in each of the experimental groups 1 and 2 were also fed, via oral gavage, with the rosoxacin solution prepared in section A of this example, at a respective dose of 10 mg/kg per mouse and 50 mg/kg per mouse. In addition, the mice in each of the normal control group and the pathological control group were fed, via oral gavage, with PBS at a volume of 150 μL. Each mouse was fed once every two days until the end of the 14th week after feeding with the diets.
Prior to the feeding of the diets as described in section B of this example (i.e., at the 0th week), on the 1st day of each week after starting the feeding of the diets, and at the end of the 14th week after starting the feeding of the diets, the body weight of each mouse was measured.
After completion of the determination of body weight at the end of the 14th week, the mice in each group were sacrificed using CO2, and blood samples were collected via cardiac puncture at the same time. Each of the blood samples was then subjected to centrifugation at 4° C. under a speed of 1200 g for […], so as to obtain a serum sample. In addition, liver tissue was obtained from each mouse carcass, and then was subjected to weight measurement. The data thus obtained were analyzed according to the procedures as described in section 1 of “General Procedures”.
The liver tissue of each mouse obtained in section D of this example was subjected to a fixation treatment with a 10% paraformaldehyde solution for 24 hours. Next, the fixed liver tissue was subjected to a dehydration treatment performed in sequence using ethanol solutions having concentrations of […], respectively. After that, the dehydrated liver tissue was washed with xylene, and was then embedded with paraffin, followed by slicing, so as to obtain a tissue section having a thickness of 5 μm.
After dewaxing, the tissue section was subjected to hematoxylin-eosin staining using a staining protocol well-known to those skilled in the art, and was then observed under an optical microscope (Leica, Cat. No. DM2500) at a magnification of 20×.
The serum sample of each mouse obtained in section D of this example was subjected to determination of liver function indexes (i.e., aspartate transaminase (AST) and alanine transaminase (ALT)) which was entrusted to Bio-Cando Co., Ltd., so as to assess the degree of liver injury in the mouse. The data thus obtained were analyzed according to the procedures as described in section 1 of “General Procedures”.

HepG2 cells [4] = assay: Relative amount of accumulated lipid droplets in HepG2 cells, different quinolone antibiotics (BODIPY); type: cell-based, human; conditions: fatty acid mixture + antibiotic 50 μM (24th, 48th h), 900 μM (72nd h); FIG. 11
Procedure: The HepG2 cells prepared in section 1 of “General Experimental Materials” were divided into 7 groups, including a pathological control group, an experimental group, and five comparative groups (i.e., comparative groups 1 to 5). Each group of the HepG2 cells was incubated in a respective well of a 24-well culture plate containing 1 mL of DMEM medium at 1.2×10^5 cells/well, followed by cultivation in an incubator with culture conditions set at 37° C., 5% CO2.
On the 24th and 48th hours after cultivation, the culture medium in each well was removed, and the cells of the respective group were added with the respective testing agent as shown in Table 5 below. […]
The cell suspension of the respective one of the pathological control group, the experimental group, and the comparative groups 1 to 5 obtained in section B of this example was added with 50 μL of BODIPY solution (DMEM containing 13 μg/mL BODIPY 493/504 (Sigma-Aldrich, Cat No. 790389)), followed by placing on ice for 30 minutes in the dark to allow neutral lipid staining to be carried out. […] After that, the supernatant was poured off, and the pellet was subjected to a fixation treatment with 4% paraformaldehyde (in PBS) for 15 minutes, followed by determination of fluorescence intensity using a flow cytometer (BD Biosciences, Cat. No. BD Accuri C6).
The BODIPY was excited by an argon-ion laser (488 nm) to generate fluorescence. […]

[5] = experimental group 1: 10 mg/kg oral gavage once every two days
[6] = experimental group 2: 50 mg/kg oral gavage once every two days

With `CCn1cc(C(=O)O)c(=O)c2ccc(-c3ccncc3)cc21` [rosoxacin, 1-ethyl-4-oxo-7-(4-pyridyl)-1,4-dihydroquinoline-3-carboxylic acid] the “lipid droplets accumulated in liver (hematoxylin-eosin histology)” value (male C57BL/6JNarl mice [1]; FIG. 9) was “significantly less than those in the pathological control group”, the “percentage of Sirius Red-stained area” value (male C57BL/6JNarl mice [1]; p<0.0001, FIG. 10) was “significantly lower than that determined in the pathological control group” and the “mean fluorescence intensity (MFI) value (accumulated lipid droplets)” value (HepG2 cells [2]; experimental group 1: fatty acid mixture + rosoxacin 10 μM (24th, 48th h), 180 μM (72nd h)) was “lower than that of the pathological control group”. The “mean fluorescence intensity (MFI) value (accumulated lipid droplets)” value (HepG2 cells [2]; experimental group 2: fatty acid mixture + rosoxacin 50 μM (24th, 48th h), 900 μM (72nd h), p<0.001) was “significantly lower than that determined in the pathological control group”, the “expression level of α-SMA (normalized to β-actin)” value (α-SMA) was “significantly lower than that determined in the pathological control group; also recorded: even lower than that determined in the normal control group” and the “lipid droplets accumulated in liver (hematoxylin-eosin histology)” value (male C57BL/6JNarl mice [3]; [5]) was “significantly lower than those in the pathological control group”. The “aspartate transaminase (AST) content in serum” value (male C57BL/6JNarl mice [3]; [5]) was “apparently or significantly lower than those determined in the pathological control group”, the “alanine transaminase (ALT) content in serum” value (male C57BL/6JNarl mice [3]; [5]) was “apparently or significantly lower than those determined in the pathological control group” and the liver weight (male C57BL/6JNarl mice [3]; experimental group 1: 10 mg/kg oral gavage once every two days, week 5 to 14 of HFD, 10 mg/kg) was “apparently or significantly lower than that determined in the pathological control group”. For the same compound, the “lipid droplets accumulated in liver (hematoxylin-eosin histology)” value (male C57BL/6JNarl mice [3]; [6]) was “significantly lower than those in the pathological control group”, the “aspartate transaminase (AST) content in serum” value (male C57BL/6JNarl mice [3]; [6]) was “apparently or significantly lower than those determined in the pathological control group” and the “alanine transaminase (ALT) content in serum” value (male C57BL/6JNarl mice [3]; experimental group 2: 50 mg/kg oral gavage once every two days, p<0.05) was “significantly lower than that determined in the pathological control group”. The liver weight (male C57BL/6JNarl mice [3]; experimental group 2: 50 mg/kg oral gavage once every two days, week 5 to 14 of HFD, 50 mg/kg) was “apparently or significantly lower than that determined in the pathological control group; also recorded: even lower than that of the normal control group”, the body weight (male C57BL/6JNarl mice [3]; experimental group 2: 50 mg/kg oral gavage once every two days, week 5 to 14 of HFD, p<0.05, FIG. 3) was “significantly lower than that determined in the pathological control group” and the “relative percentage of MFI value (pathological control group = 100%)” value (HepG2 cells [4]) was “significantly lower than that determined in the pathological control group”.
